Read-outs that look alike come from different tables or passages of the source.
What was measured:
[1] = Pharmacokinetic test in mice; type: in vivo; conditions: plasma, oral intragastric
Experimental: Male ICR mice were administered orally intragastrically, the plasma concentrations of the compounds of the present invention were measured in the mice, the PK parameters were calculated, and the pharmacokinetic evaluation was performed on the compounds of the present invention.
• (1) Test samples: the compounds of the examples of the present invention, self-made. • (2) Test animals: ICR mice, SPF grade, male, Xuzhou Medical University. • (3) Main test instruments:
Drug preparation: according to the weight of the weighed drug, the preparation volume was calculated. 5% of DMSO was added firstly. After the drug was fully dissolved, 95% of 20% aqueous PB-cyclodextrin solution was then added, and the mixture was mixed well for later use.
Administration route: oral intragastric administration. Frequency and duration of administration: single administration.
ICR mice were stratified according to body weight and then randomly divided into groups of 9 mice each, and the mice were fasted overnight prior to the test. The mice were separately administered orally intragastrically. 50 μL of blood was collected from the fundus vein of the mouse at 0 h, 0.083 h, 0.25 h, 0.5 h, 1 h, 2 h, 4 h, 8 h, 12 h, and 24 h (3 time points for each mouse) to a sample tube containing heparin sodium as an anticoagulant, and the tube was placed in wet ice and centrifuged at 4000 r·min^−1 for 10 min. The plasma was separated, and cryopreserved in a refrigerator at −80° C. for testing.
The concentrations of plasma samples were measured by high performance liquid chromatography-tandem mass spectrometry (LC-MS/MS). The retention times of the compounds and internal standard, chromatogram acquisitions, and integrals of chromatograms were processed using the software Analyst (AB SCIEX), and the data statistics were processed using the software Watson LIMS (Thermo Fisher Scientific) or Analyst (AB SCIEX). The concentration of plasma was processed using a non-compartmental model of the pharmacokinetic software WinNonlin™ Version 6.3 (Pharsight, Mountain View, CA), and pharmacokinetic parameters were calculated by a linear log-trapezoidal method.

D2L receptor = biological target: T1, D2L receptor (Homo sapiens, UniProt P14416); assay: D2L receptor cAMP agonist test; type: cell-based; conditions: HEK293 cell strain stably expressing D2L receptor; for EC50: cAMP, forskolin 0.5 μM; for D2L Max Act %: positive control dopamine 1 μM
T1 construct: expressed in transfected cells
T1 sequence (P14416 whole entry): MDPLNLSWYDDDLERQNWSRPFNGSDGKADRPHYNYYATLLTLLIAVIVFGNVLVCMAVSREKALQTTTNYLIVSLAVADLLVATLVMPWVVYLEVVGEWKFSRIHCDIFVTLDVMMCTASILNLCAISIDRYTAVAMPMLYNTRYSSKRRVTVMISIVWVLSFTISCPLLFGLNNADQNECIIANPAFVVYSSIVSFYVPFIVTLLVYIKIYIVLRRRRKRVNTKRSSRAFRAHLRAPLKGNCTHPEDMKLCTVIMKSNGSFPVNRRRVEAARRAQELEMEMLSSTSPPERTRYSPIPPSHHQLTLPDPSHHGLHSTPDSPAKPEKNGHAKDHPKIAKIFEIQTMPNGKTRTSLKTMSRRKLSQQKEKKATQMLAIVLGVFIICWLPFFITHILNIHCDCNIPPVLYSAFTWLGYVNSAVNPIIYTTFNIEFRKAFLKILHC
Experimental: (§1) • cAMP detection kit was purchased from Cisbio; an HEK293 cell strain stably expressing D2L receptor was constructed by Shanghai Shujing Biopharma Co., Ltd.; dopamine, forskolin, and IBMX were purchased from Sigma; ProxiPlate-384 well plates were purchased from PerkinElmer; HBSS was purchased from Thermo Fisher Scientific.
• (1) The cryopreserved cells were thawed in a water bath at 37° C., the cell suspension was resuspended in HBSS buffer, and the mixed solution was centrifuged at 750 rpm for 5 min to remove the medium. The pellet was resuspended in an appropriate amount of experimental buffer, and an appropriate amount of cell suspension was diluted to 0.4×10^6 cells/mL. • (2) 5 μL of cell suspension was added to a ProxiPlate-384 well plate (2×10^3 cells/well), and the plate was centrifuged at 1000 rpm for 1 min. • (3) Test compounds were serially diluted in an experimental buffer, and 5 μL of the mixed solution was transferred to the reaction plate with Bravo.

5-HT1A receptor = biological target: T2, 5-HT1A receptor (Homo sapiens, UniProt P08908); assay: 5-HT1A receptor cAMP agonist test; type: cell-based; conditions: HEK293 cell strain stably expressing 5-HT1A receptor; for EC50: cAMP, forskolin 2.5×10^−7 M; for 5-HT1A Max Act %: positive control serotonin 10^−6 M
T2 construct: expressed in transfected cells
T2 sequence (P08908 1-422): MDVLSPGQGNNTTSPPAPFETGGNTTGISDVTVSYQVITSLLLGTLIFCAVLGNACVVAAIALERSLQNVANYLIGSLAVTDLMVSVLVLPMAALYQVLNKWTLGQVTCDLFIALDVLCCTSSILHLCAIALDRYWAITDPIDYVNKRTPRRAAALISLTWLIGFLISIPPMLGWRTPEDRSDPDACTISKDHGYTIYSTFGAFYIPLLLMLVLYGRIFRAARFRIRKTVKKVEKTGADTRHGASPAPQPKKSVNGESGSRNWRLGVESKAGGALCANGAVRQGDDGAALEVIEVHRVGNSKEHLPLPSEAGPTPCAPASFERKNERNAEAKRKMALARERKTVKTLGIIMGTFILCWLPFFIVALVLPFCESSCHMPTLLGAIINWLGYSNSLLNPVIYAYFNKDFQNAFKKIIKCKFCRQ
Source text: as §1, with “5-HT1A” for “D2L”, “serotonin,” for “dopamine,”
(§2) • (1) The cultured cells were digested with trypsin, and the cell suspension was washed with HBSS buffer after the digestion was terminated. The medium was removed by centrifugation at 200×g. The pellet was resuspended in an appropriate amount of experimental buffer, and 20 μL of cell suspension was counted using a cell counter and diluted to 0.4×10^6 cells/mL. • (2) 5 μL of cell suspension was added to a ProxiPlate-384 well plate (2×10^3 cells/well). • (3) Test compounds were serially diluted in an experimental buffer, and 5 μL of the mixed solution was transferred to the reaction plate with Bravo.

5-HT2A receptor = 5-HT2A receptor (Homo sapiens, UniProt P28223); assay: Calcium flux test for 5-HT2A receptor; type: cell-based; conditions: CHO cell strain stably expressing 5-HT2A receptor; for IC50: calcium flux, antagonism of serotonin; for 5-HT2A Max Inh %: positive control ketanserin 10^−7 M
5-HT2A receptor, sequence (P28223 whole entry): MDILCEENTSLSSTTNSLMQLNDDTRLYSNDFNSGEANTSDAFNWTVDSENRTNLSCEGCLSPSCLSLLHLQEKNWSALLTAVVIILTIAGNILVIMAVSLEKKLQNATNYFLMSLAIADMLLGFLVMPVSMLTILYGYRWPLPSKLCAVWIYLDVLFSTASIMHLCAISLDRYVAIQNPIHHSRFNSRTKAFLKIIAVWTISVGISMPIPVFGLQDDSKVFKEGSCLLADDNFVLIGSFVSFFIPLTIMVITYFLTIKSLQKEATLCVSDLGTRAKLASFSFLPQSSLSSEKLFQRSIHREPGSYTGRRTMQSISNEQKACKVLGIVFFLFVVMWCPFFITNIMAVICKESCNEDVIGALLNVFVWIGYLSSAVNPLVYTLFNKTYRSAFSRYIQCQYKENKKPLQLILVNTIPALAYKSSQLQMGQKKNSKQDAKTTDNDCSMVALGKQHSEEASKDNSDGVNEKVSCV
Experimental: • Fluo-4 calcium flux detection kit was purchased from Invitrogen; a CHO cell strain stably expressing 5-HT2A receptor was purchased from PerkinElmer; serotonin was purchased from Sigma; ketanserin was purchased from Targetmol; polylysine-coated 384-well plates and 384-well compound plates were purchased from Greiner Bio-One. Molecular Device FLIPR, Agilent Bravo liquid workstation, and Countstar BioTech cell counter.
• (1) The cryopreserved cells were rapidly thawed in a water bath at 37° C., and the cells were resuspended in a plating medium. The cryopreservation solution was removed by centrifugation at 200×g. The pellet was resuspended in an appropriate amount of plating medium, 20 μL of cell suspension was counted using a cell counter, and the cell density was diluted to 1×10^6 cells/mL. • (2) 20 μL of cell suspension was added to a polylysine-coated 384-well plate (2×10^4 cells/well). • (3) The cell plate was incubated in a 37° C./5% CO2 incubator for 16-20 h.
• (1) The cell plate was taken out from the incubator and centrifuged at 100×g to remove the medium. 20 μL of experimental buffer was added, and then 20 μL of 2× fluorescent probe solution was added. […] The cell plate and agonist positive compound plate were placed into the FLIPR instrument, the detection program was run, 10 μL of the diluted compound was transferred from the agonist compound plate to the cell plate, and the fluorescence signal was read. […] The cell plate and test compound plate were placed in the FLIPR instrument, the detection program was run, and 10 μL of the diluted compound was transferred from the test compound plate to the cell plate. […] The test compound plate was then taken out, and the agonist positive compound plate with 6×EC50 concentration was placed.
Inhibition rate (Inhibition %)=(negative control reading value−compound reading value)/(negative control reading value−positive control reading value)×100%

D2S receptor = biological target: T3, D2S receptor (Homo sapiens, UniProt P14416); assay: D2S receptor cAMP agonist test; type: cell-based; conditions: HEK293 cell strain stably expressing D2S receptor; for EC50: cAMP, forskolin 5×10^−7 M; for D2S Max Act %: positive control dopamine 1×10^−7 M
T3 construct: expressed in transfected cells
T3 sequence (P14416 1-414 isoform P14416-2): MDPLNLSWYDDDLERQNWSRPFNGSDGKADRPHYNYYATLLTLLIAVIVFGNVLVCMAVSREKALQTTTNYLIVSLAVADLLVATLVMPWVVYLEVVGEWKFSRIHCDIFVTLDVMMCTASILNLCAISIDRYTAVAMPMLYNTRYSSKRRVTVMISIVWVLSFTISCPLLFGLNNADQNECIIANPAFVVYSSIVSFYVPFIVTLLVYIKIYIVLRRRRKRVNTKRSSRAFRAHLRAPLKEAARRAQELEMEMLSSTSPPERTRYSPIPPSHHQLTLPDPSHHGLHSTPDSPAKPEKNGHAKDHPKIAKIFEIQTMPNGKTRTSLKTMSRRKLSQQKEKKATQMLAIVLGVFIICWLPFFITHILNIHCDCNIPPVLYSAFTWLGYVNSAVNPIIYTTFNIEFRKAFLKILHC
Source text: as §1, with “cAMP” for “• cAMP”, “D2S” for “D2L”
as §2, with “0.6×10^6” for “0.4×10^6”, “(3×10^3” for “(2×10^3”

[2] = male, ICR, mouse, po, 5 mg/kg, single dose 5 mg/kg
[3] = male, ICR, mouse, po, 5 mg/kg, single dose 5 mg/kg, read-out: AUC(0-inf)
[4] = male, ICR, mouse, po, 5 mg/kg, single dose 5 mg/kg, read-out: Cmax
[5] = male ICR mice, single dose 5 mg/kg, 5 mg/kg

| Compound | half-life [1, 2] [h] | AUC(0-inf) [1, 3] [ng·h/mL] | Cmax [1, 4] [ng/mL] | EC50 (D2L receptor) [nM] | D2L Max Act % (D2L receptor) [%] | EC50 (5-HT1A receptor) [nM] | 5-HT1A Max Act % (5-HT1A receptor) [%] | IC50 (5-HT2A receptor) [nM] | 5-HT2A Max Inh % (5-HT2A receptor) [%] | EC50 (D2S receptor) [nM] | D2S Max Act % (D2S receptor) [%] | AUC(0-inf) [1, 5] [ng·h/mL] | Cmax [1, 5] [ng/mL] | t1/2 [1, 5] [h] | half-life ([1]; male, ICR, mouse, po, 3 mg/kg, single dose 3 mg/kg) [h] | AUC(0-inf) ([1]; male, ICR, mouse, po, 3 mg/kg, single dose 3 mg/kg, read-out: AUC(0-inf)) [ng·h/mL] | Cmax ([1]; male, ICR, mouse, po, 3 mg/kg, single dose 3 mg/kg, read-out: Cmax) [ng/mL] |
| --- | --- | --- | --- | --- | --- | --- | --- | --- | --- | --- | --- | --- | --- | --- | --- | --- | --- |
| O=C1Nc2cc(OCCCCN3CCN(c4cccc5c4OC(F)(F)O5)CC3)ccc2C2CC12 (stereo not drawn) [Example 41, 5-(4-(4-(2,2-Difluorobenzo[d][1,3]dioxolan-4-yl)piperazin-1-yl)butoxy)-1,1a,3,7b-tetrahydro-2H-cyclopropa[c]quinolin-2-one] | 8.6 | 9970 | 971 | 0.97 | 42.4 | 50.8 | 92.7 | 3350 | 80.4 | 0.92 | 115.0 |  |  |  |  |  |  |
| O=C1Nc2cc(OCCCCN3CCN(c4cccc5sccc45)CC3)ccc2C2CC12 (stereo not drawn) [Example 42, 5-(4-(4-(Benzo[b]thiophen-4-yl)piperazin-1-yl)butoxy)-1,1a,3,7b-tetrahydro-2H-cyclopropa[c]quinolin-2-one] | 13 | 11300 | 687 | 0.47 | 32.7 | 313 | 55.7 | 1690 | 100.6 | 0.95 | 106.0 |  |  |  |  |  |  |
| O=C1Nc2cc(OCCCCN3CCN(c4cccc5sccc45)CC3)ccc2C2CC12 (single isomer, unassigned) [Example 42-P2] |  |  |  | 0.43 | 32.6 | 693 | 45.5 | 497 | 97.3 | 0.93 | 99.2 | 11157.8 | 1296.7 | 5.8 |  |  |  |
| O=C1Nc2cc(OCCCCN3CCN(c4cccc5c4CCO5)CC3)ccc2C2CC12 (single isomer, unassigned) [Example 45-P1] | 3.2 | 4770 | 774 | 2.12 | 28.0 | 243 | 56.4 | 398 | 99.8 | 1.01 | 106.1 |  |  |  |  |  |  |
| O=C1CCc2ccc(OCCCCN3CCN(c4cccc(Cl)c4Cl)CC3)cc2N1 [Aripiprazole, reference compound] | 3.5 | 1040 | 180 |  |  |  | 43.8 |  | 86.0 |  |  |  |  |  |  |  |  |
| O=C1Nc2cc(OCCCCN3CCN(c4cccc5sc(Cl)cc45)CC3)ccc2C2CC12 (stereo not drawn) [Example 49, 5-(4-(4-(2-Chlorobenzo[b]thiophen-4-yl)piperazin-1-yl)butoxy)-1,1a,3,7b-tetrahydro-2H-cyclopropa[c]quinolin-2-one] |  |  |  | 0.91 | 56.3 | 128 | 80.7 | 7400 | 90.4 | 0.99 | 112.6 |  |  |  | 10.5 | 4780 | 420 |
| O=C1Nc2cc(OCCCCN3CCN(c4cccc5c4CC(F)(F)C5)CC3)ccc2C2CC12 (stereo not drawn) [Example 46, 5-(4-(4-(2,2-Difluoro-2,3-dihydro-1H-inden-4-yl)piperazin-1-yl)butoxy)-1,1a,3,7b-tetrahydro-2H-cyclopropa[c]quinolin-2-one] | 15.2 | 17700 | 1200 | 0.4 | 43.4 | 354 | 62.6 | 2340 | 91.6 | 0.93 | 114.3 |  |  |  |  |  |  |
| O=C1COc2ccc(OCCCCN3CCN(c4cccc(Cl)c4Cl)CC3)cc2N1 [RP5063, reference compound] | 3.8 | 1560 | 195 |  |  | 1880 | 31.6 | 9130 | 67.6 |  |  |  |  |  |  |  |  |

Source: US20240368115A1, “REGULATOR CONTAINING TRICYCLIC DERIVATIVE, PREPARATION METHOD THEREFOR AND APPLICATION THEREOF” (SHUJING BIOPHARMA CO., LTD, priority 2021, published 2024)
